Test results published in the NIST ThermoML archive (doi:10.1021/je3013342).

Legend:
[1] = xn = mol fraction of the nth substance listed; conditions: 101 kPa, Liquid, Vibrating tube method
[2] = 101 kPa, Liquid, Vibrating tube method

CCCCCl [1-chlorobutane] + C[N+](=O)[O-]
[1], x1 = 1
Conditions | mass density [kg/m3]
298.15 K | 881.17
308.15 K | 870
318.15 K | 858.67

ClC(Cl)C(Cl)Cl [1,1,2,2-tetrachloroethane]
[2]
Conditions | mass density [kg/m3]
298.15 K | 1588.23
308.15 K | 1572.66
318.15 K | 1557.04

ClC(Cl)Cl [trichloromethane]
[2]
Conditions | mass density [kg/m3]
298.15 K | 1473.42
308.15 K | 1454.33
318.15 K | 1434.98

CC(Cl)(Cl)Cl [1,1,1-trichloroethane]
[2]
Conditions | mass density [kg/m3]
298.15 K | 1328.24
308.15 K | 1311.45
318.15 K | 1294.47

C[N+](=O)[O-] [nitromethane]
[2]
Conditions | mass density
298.15 K | 1130.9 kg/m3 [middle of 5 runs]
308.15 K | 1117.28 kg/m3 [middle of 6 runs]
318.15 K | 1103.53 kg/m3 [middle of 6 runs]

ClC(Cl)C(Cl)Cl [1,1,2,2-tetrachloroethane] + C[N+](=O)[O-]
mass density [kg/m3], [1]
Conditions | x1 = 0.0711 | x1 = 0.1888 | x1 = 0.2563 | x1 = 0.3464 | x1 = 0.4341 | x1 = 0.5431 | x1 = 0.6654 | x1 = 0.8211 | x1 = 0.9285 | x1 = 1
298.15 K | 1191.08 | 1275.68 | 1318 | 1366.65 | 1408.57 | 1454.03 | 1497.84 | 1544.6 | 1571.92 | 1588.23
308.15 K | 1177.12 | 1261.26 | 1303.41 | 1351.85 | 1393.61 | 1438.91 | 1482.56 | 1529.17 | 1556.4 | 1572.66
318.15 K | 1163.03 | 1246.76 | 1288.69 | 1336.94 | 1378.54 | 1423.68 | 1467.2 | 1513.67 | 1540.82 | 1557.04

ClCCCCl [1,3-dichloropropane]
[2]
Conditions | mass density [kg/m3]
298.15 K | 1180.1
308.15 K | 1167.7
318.15 K | 1155.21

ClCCCl [1,2-dichloroethane]
[2]
Conditions | mass density [kg/m3]
298.15 K | 1245.59
308.15 K | 1230.96
318.15 K | 1216.16

C[N+](=O)[O-] [nitromethane] + ClC(Cl)C(Cl)Cl
[1], x2 = 0
Conditions | mass density [kg/m3]
298.15 K | 1130.86
308.15 K | 1117.24
318.15 K | 1103.5

C[N+](=O)[O-] [nitromethane] + CCCCCCl
[1], x2 = 0
Conditions | mass density [kg/m3]
298.15 K | 1130.86
308.15 K | 1117.23
318.15 K | 1103.48

ClC(Cl)Cl [trichloromethane] + C[N+](=O)[O-]
[1], x1 = 1
Conditions | mass density [kg/m3]
298.15 K | 1473.42
308.15 K | 1454.33
318.15 K | 1434.98

CC(Cl)(Cl)Cl [1,1,1-trichloroethane] + C[N+](=O)[O-]
mass density [kg/m3], [1]
Conditions | x1 = 0.0921 | x1 = 0.1727 | x1 = 0.2614 | x1 = 0.3951 | x1 = 0.4862 | x1 = 0.5904 | x1 = 0.7066 | x1 = 0.8358 | x1 = 0.9012 | x1 = 1
298.15 K | 1161.87 | 1185.48 | 1208.35 | 1238.06 | 1255.6 | 1273.47 | 1291.18 | 1308.67 | 1316.72 | 1328.24
308.15 K | 1147.77 | 1170.98 | 1193.5 | 1222.71 | 1239.96 | 1257.52 | 1274.93 | 1292.14 | 1300.08 | 1311.45
318.15 K | 1133.54 | 1156.35 | 1178.49 | 1207.19 | 1224.13 | 1241.39 | 1258.49 | 1275.42 | 1283.24 | 1294.47

CCCCCCl [1-chloropentane] + C[N+](=O)[O-]
mass density [kg/m3], [1]
Conditions | x1 = 0.1043 | x1 = 0.1721 | x1 = 0.2575 | x1 = 0.3466 | x1 = 0.4525 | x1 = 0.5435 | x1 = 0.6864 | x1 = 0.8325 | x1 = 0.8859 | x1 = 1
298.15 K | 1075.06 | 1045.39 | 1014.58 | 987.6 | 960.73 | 941.21 | 916.34 | 895.75 | 889.18 | 877.09
308.15 K | 1062.09 | 1032.77 | 1002.33 | 975.7 | 949.19 | 929.96 | 905.49 | 885.27 | 878.82 | 866.97
318.15 K | 1048.99 | 1020.02 | 989.95 | 963.67 | 937.53 | 918.59 | 894.51 | 874.65 | 868.33 | 856.73

C[N+](=O)[O-] [nitromethane] + ClCCCCCl
[1], x2 = 0
Conditions | mass density [kg/m3]
298.15 K | 1130.95
308.15 K | 1117.32
318.15 K | 1103.57

C[N+](=O)[O-] [nitromethane] + CCCCCl
mass density [kg/m3], [1]
Conditions | x2 = 0 | x2 = 0.1107 | x2 = 0.2174 | x2 = 0.3236 | x2 = 0.3932 | x2 = 0.4856 | x2 = 0.5569 | x2 = 0.6626 | x2 = 0.7722 | x2 = 0.8646
298.15 K | 1130.76 | 1080.18 | 1040.11 | 1007.02 | 987.92 | 965.38 | 949.92 | 929.96 | 911.75 | 898.07
308.15 K | 1117.14 | 1067 | 1027.27 | 994.47 | 975.54 | 953.21 | 937.92 | 918.09 | 900.15 | 886.65
318.15 K | 1103.39 | 1053.7 | 1014.29 | 982.09 | 963.01 | 940.87 | 925.76 | 906.2 | 888.4 | 875.07
